The results in this text go back to patent US7632683B2, “Method, apparatus, reagent kit and reagent for distinguishing erythrocytes in a biological specimen” (Sysmex Corporation, priority 2004, dated 2009).

The test system of the first assay is yeast-like fungi (C. glabrata). Nature of the assay: Flow cytometry of urine specimen spiked with yeast-like fungi: fluorescence stainability of the fungi. The class given is cell-based. The settings on record: average fluorescence signal of yeast-like fungi in human urine without erythrocytes; substance at 1.0 wt % in diluting liquid in place of 2-phenoxyethanol; relative values on scale 0-255. Here is the method:
A staining liquid was used which was obtained by dissolving a fluorescent dye represented by the following formula in ethylene glycol so that the final concentration in the sample for analysis would be 6 ppm.
In the step S1, the sample preparing section 200 is controlled to execute the preparation of a sample for analysis. The operation of the sample preparing section 200 in the step S1 will be described with reference to FIG. 5. First, the dispensing device 224 sucks 522 μL of a diluting liquid from the sample container 231 of the reagent setting section 222, and then sucks 180 µL of a specimen (human urine) from the specimen container 225 that is set in the specimen setting section 221. The dispensing device 224 then dispenses the sucked diluting liquid and specimen to the reaction vessel 226 that is set in the incubator 223. Next, the dispensing device 224 sucks 18 μL of a staining liquid from the reagent container 227 of the reagent setting section 222, and dispenses the staining liquid to the reaction vessel 226. Thereafter, the incubator 223 stirs the mixture for 10 seconds to stain the diluted specimen while keeping the liquid temperature within the reaction vessel 226 containing the specimen, diluting liquid, and staining liquid to be 35 °C. The sample liquid for analysis thus prepared is sucked by the dispensing device 224, and is supplied to the sample container 233. The sample liquid for analysis supplied to the sample container 233 is let to flow through the flow cell 301 of the detecting section 300.
In the step S2, the detecting section 300 is controlled to detect signals reflecting the characteristics of each particle from the particles in the sample liquid for analysis. The operation of the detecting section 300 in the step S2 will be described with reference to FIG. 6. When the sample liquid is supplied to the sample container 233 as described above, the sample liquid is guided to the nozzle 303 by the operation of pumps and valves (not illustrated). Then, the sample liquid is ejected from the nozzle 303 to the flow cell 301. Simultaneously with this, a sheath liquid is supplied to the flow cell 301 from a sheath liquid container (not illustrated) via a sheath liquid inlet 304. By this, the sample liquid is surrounded by the sheath liquid in the flow cell 301, and is further narrowed down at by the orifice section 302 to flow. By narrowing the flow of the sample liquid, the particles such as erythrocytes and bacteria contained in the sample liquid are arranged in one line to flow through the orifice section 302. A laser beam emitted from the laser light source 306 is condensed by the condenser lens 307 and is radiated to the sample liquid that is flowing through the orifice section 302. The forward scattered light emitted from a particle in the sample liquid irradiated with the laser beam is condensed by the collector lens 309. Then the forward scattered light that has passed through the pinhole 310 is received and subjected to photoelectric conversion by the photodiode 308 to become a pulse-like forward scattered light signal. The fluorescence emitted from the particle in the sample liquid irradiated with the laser beam is condensed by the collector lens 312. Then the fluorescence that has passed through the filter 313 and the pinhole 314 is received and subjected to photoelectric conversion by the photomultiplier tube 311 to become a pulse-like fluorescence signal. The forward scattered light signal and the fluorescence signal are amplified respectively by the amplifiers 315, 316 and are sent to the controlling section 400.
First, the forward scattered light signal and the fluorescence signal detected by the detecting section are input into the signal processing circuit 403.
On the technique in general: In flow cytometry, cells or beads pass a laser one at a time.
The molecule `c1ccc2scnc2c1` [Benzothiazole] displayed a Fluorescence intensity of 92. Take `CC(=O)Oc1ccccc1` [Phenyl acetate]: the Fluorescence intensity came out at 82. The same measure, in the same setting: as for `Oc1ccccc1` [Phenol], the figure is 55; as for `OCc1ccccc1` [Benzyl alcohol], 73. The same measure, in the same setting: as for `OCCc1ccccc1` [β-phenethyl alcohol], the figure is 84. In the case of `CC(O)COc1ccccc1` (stereo not shown) [1-phenoxy-2-propanol], the Fluorescence intensity amounted to 103.

The same assay, now with this note: human urine with erythrocytes plus C. glabrata; diluting liquid with 2-phenoxyethanol 7.5 g/l, pH 7.0 (Example 1) versus without (Example 2).
Take `OCCOc1ccccc1` [2-phenoxyethanol]: the “Fluorescence intensity of yeast-like fungi compared with erythrocytes (two-dimensional scattergram)” value is given as “larger fluorescence intensity than the erythrocytes”.
